Laboratory results from patent publication US6737383B1, “Herbicidal oxadiazolidines” (priority 1999, dated 2004).

What was measured:
cocklebur = assay: Test B pre/postemergence cocklebur; type: in vivo, Xanthium strumarium
Summary of the method: (§1)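 Herbicidal effect was estimated by eye on a ten-point control scale after plants spent twelve to sixteen days in a greenhouse following soil or foliar treatment. Foliar sprays targeted plants at one to four leaves; all doses were formulated in a non-phytotoxic solvent with surfactant.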

morningglory = assay: Test B pre/postemergence morningglory; type: in vivo, Ipomoea hederacea
Summary of the method: as §1

sugar beet = assay: Test B pre/postemergence sugar beet; type: in vivo, Beta vulgaris
Summary of the method: as §1

corn = assay: Test B pre/postemergence corn; type: in vivo, Zea mays
Summary of the method: as §1

surinam grass = assay: Test B pre/postemergence surinam grass; type: in vivo, Brachiaria decumbens
Summary of the method: as §1

purple nutsedge = assay: Test B pre/postemergence purple nutsedge; type: in vivo, Cyperus rotundus
Summary of the method: as §1

wild oat = assay: Test B pre/postemergence wild oat; type: in vivo, Avena fatua
Summary of the method: as §1

crabgrass = assay: Test B pre/postemergence crabgrass; type: in vivo, Digitaria sanguinalis
Summary of the method: as §1

soybean = assay: Test B pre/postemergence soybean; type: in vivo, Glycine max
Summary of the method: as §1

pigweed = assay: Test B pre/postemergence pigweed; type: in vivo, Amaranthus retroflexus
Summary of the method: as §1

rape = assay: Test B pre/postemergence rape; type: in vivo, Brassica napus
Summary of the method: as §1

bedstraw = assay: Test B pre/postemergence bedstraw; type: in vivo, Galium aparine; settings: Preemergence; for Bedstraw plant response rating: scale 0 to 10, 0 is no effect, 10 is complete control
Summary of the method: as §1

blackgrass = assay: Test B pre/postemergence blackgrass; type: in vivo, Alopecurus myosuroides
Summary of the method: as §1

velvetleaf = assay: Test B pre/postemergence velvetleaf; type: in vivo, Abutilon theophrasti
Summary of the method: as §1

giant foxtail = assay: Test B pre/postemergence giant foxtail; type: in vivo, Setaria faberii
Summary of the method: as §1

wheat = assay: Test B pre/postemergence wheat; type: in vivo, Triticum aestivum
Summary of the method: as §1

[1] = Postemergence, Rate 62 g/ha, scale of 0 to 10, 0 is no effect, 10 is complete control
[2] = Postemergence, Rate 125 g/ha, scale 0 to 10, 0 is no effect, 10 is complete control
[3] = Postemergence, Rate 500 g/ha, scale 0 to 10, 0 is no effect, 10 is complete control
[4] = Preemergence, Rate 62 g/ha, scale of 0 to 10 where 0 is no effect and 10 is complete control
[5] = Preemergence, Rate 125 g/ha, scale 0 to 10, 0 is no effect, 10 is complete control
[6] = Preemergence, Rate 500 g/ha, scale of 0 to 10 where 0 is no effect and 10 is complete control
[7] = Rate 250 g/ha, Postemergence, scale of 0 to 10 where 0 is no effect and 10 is complete control

## CC(C)N(C(=O)n1oc(=O)n(COCc2ccccc2)c1=O)c1ccc(F)cc1F [Compound 520]
cocklebur; [1]
  Cocklebur plant response rating: 0
cocklebur; [2]
  Cocklebur plant response rating: 0
cocklebur; [3]
  Plant response rating, Cocklebur: 0
cocklebur; [4]
  Plant response rating, Cocklebur: 0
cocklebur; [5]
  Cocklebur plant response rating: 0
cocklebur; Preemergence, Rate 250 g/ha
  Cocklebur plant response rating (0 to 10 scale): 0
cocklebur; [6]
  Cocklebur plant response rating: 0
cocklebur; [7]
  Plant response rating, Cocklebur: 0
morningglory; [1]
  Morningglory plant response rating: 3
morningglory; [2]
  Morningglory plant response rating: 4
morningglory; [3]
  Plant response rating, Morningglory: 10
morningglory; [4]
  Plant response rating, Morningglory: 0
morningglory; [5]
  Morningglory plant response rating: 0
morningglory; Preemergence, Rate 250 g/ha
  Morningglory plant response rating (0 to 10 scale): 0
morningglory; [6]
  Morningglory plant response rating: 0
morningglory; [7]
  Plant response rating, Morningglory: 4
Sugar beet; [1]
  Sugarbeets plant response rating: 0
Sugar beet; [2]
  Sugarbeets plant response rating: 0
Sugar beet; [3]
  Plant response rating, Sugarbeets: 2
Sugar beet; [4]
  Plant response rating, Sugarbeets: 0
Sugar beet; [5]
  Sugarbeets plant response rating: 0
Sugar beet; Preemergence, Rate 250 g/ha
  Sugarbeets plant response rating (0 to 10 scale): 0
Sugar beet; [6]
  Sugarbeets plant response rating: 0
Sugar beet; [7]
  Plant response rating, Sugarbeets: 0
corn; [1]
  Corn plant response rating: 0
corn; [2]
  Corn plant response rating: 0
corn; [3]
  Plant response rating, Corn: 0
corn; [4]
  Plant response rating, Corn: 0
corn; [5]
  Corn plant response rating: 0
corn; Preemergence, Rate 250 g/ha
  Corn plant response rating (0 to 10 scale): 0
corn; [6]
  Corn plant response rating: 0
corn; [7]
  Plant response rating, Corn: 0
Surinam grass; [1]
  B. signalgrass plant response rating: 0
Surinam grass; [2]
  B. signalgrass plant response rating: 0
Surinam grass; [3]
  Plant response rating, B. signalgrass: 2
Surinam grass; [4]
  Plant response rating, B. signalgrass: 0
Surinam grass; [5]
  B. signalgrass plant response rating: 0
Surinam grass; Preemergence, Rate 250 g/ha
  B. signalgrass plant response rating (0 to 10 scale, 0 is no effect, 10 is complete control): 0
Surinam grass; Preemergence, Rate 500 g/ha, scale 0 to 10, 0 is no effect, 10 is complete control
  B. signalgrass plant response rating: 0
Surinam grass; [7]
  Plant response rating, B. signalgrass: 0
Purple nutsedge; [1]
  Nutsedge plant response rating: 0
Purple nutsedge; [2]
  Nutsedge plant response rating: 0
Purple nutsedge; [3]
  Plant response rating, Nutsedge: 0
Purple nutsedge; [4]
  Plant response rating, Nutsedge: 0
Purple nutsedge; [5]
  Nutsedge plant response rating: 0
Purple nutsedge; Preemergence, Rate 250 g/ha
  Nutsedge plant response rating (0 to 10 scale): 0
Purple nutsedge; [6]
  Nutsedge plant response rating: 0
Purple nutsedge; [7]
  Plant response rating, Nutsedge: 0
Wild oat; [1]
  Wild oats plant response rating: 0
Wild oat; [2]
  Wild oats plant response rating: 0
Wild oat; [3]
  Plant response rating, Wild oats: 0
Wild oat; [4]
  Plant response rating, Wild oats: 0
Wild oat; [5]
  Wild oats plant response rating: 0
Wild oat; Preemergence, Rate 250 g/ha
  Wild oats plant response rating (0 to 10 scale): 0
Wild oat; [6]
  Wild oats plant response rating: 0
Wild oat; [7]
  Plant response rating, Wild oats: 0
crabgrass; [1]
  Crabgrass plant response rating: 2
crabgrass; [2]
  Crabgrass plant response rating: 3
crabgrass; [3]
  Plant response rating, Crabgrass: 9
crabgrass; [4]
  Plant response rating, Crabgrass: 9
crabgrass; [5]
  Crabgrass plant response rating: 9
crabgrass; Preemergence, Rate 250 g/ha
  Crabgrass plant response rating (0 to 10 scale): 10
crabgrass; [6]
  Crabgrass plant response rating: 10
crabgrass; [7]
  Plant response rating, Crabgrass: 4
soybean; [1]
  Soybean plant response rating: 2
soybean; [2]
  Soybean plant response rating: 4
soybean; [3]
  Plant response rating, Soybean: 4
soybean; [4]
  Plant response rating, Soybean: 0
soybean; [5]
  Soybean plant response rating: 0
soybean; Preemergence, Rate 250 g/ha
  Soybean plant response rating (0 to 10 scale): 0
soybean; [6]
  Soybean plant response rating: 0
soybean; [7]
  Plant response rating, Soybean: 4
pigweed; [1]
  Redroot pigweed plant response rating: 0
pigweed; [2]
  Redroot pigweed plant response rating: 3
pigweed; [3]
  Plant response rating, Redroot pigweed: 0
pigweed; [4]
  Plant response rating, Redroot pigweed: 0
pigweed; [5]
  Redroot pigweed plant response rating: 0
pigweed; Preemergence, Rate 250 g/ha
  Redroot pigweed plant response rating (0 to 10 scale): 0
pigweed; [6]
  Redroot pigweed plant response rating: 0
rape; [1]
  Rape plant response rating: 0
rape; [2]
  Rape plant response rating: 0
rape; [3]
  Plant response rating, Rape: 9
rape; [4]
  Plant response rating, Rape: 0
rape; [5]
  Rape plant response rating: 0
rape; Preemergence, Rate 250 g/ha
  Rape plant response rating (0 to 10 scale): 0
rape; [6]
  Rape plant response rating: 0
rape; [7]
  Plant response rating, Rape: 0
bedstraw; Rate 62 g/ha, scale of 0 to 10 where 0 is no effect and 10 is complete control
  Plant response rating, Bedstraw: 0
bedstraw; Rate 125 g/ha
  Bedstraw plant response rating: 0
bedstraw; Rate 250 g/ha
  Bedstraw plant response rating (0 to 10 scale): 0
bedstraw; Rate 500 g/ha
  Bedstraw plant response rating: 0
blackgrass; [1]
  Blackgrass plant response rating: 0
blackgrass; [2]
  Blackgrass plant response rating: 0
blackgrass; [3]
  Plant response rating, Blackgrass: 6
blackgrass; [4]
  Plant response rating, Blackgrass: 0
blackgrass; [5]
  Blackgrass plant response rating: 0
blackgrass; Preemergence, Rate 250 g/ha
  Blackgrass plant response rating (0 to 10 scale): 0
blackgrass; [6]
  Blackgrass plant response rating: 0
blackgrass; [7]
  Plant response rating, Blackgrass: 0
velvetleaf; [1]
  Velvetleaf plant response rating: 3
velvetleaf; [2]
  Velvetleaf plant response rating: 4
velvetleaf; [3]
  Plant response rating, Velvetleaf: 6
velvetleaf; [4]
  Plant response rating, Velvetleaf: 0
velvetleaf; [5]
  Velvetleaf plant response rating: 0
velvetleaf; Preemergence, Rate 250 g/ha
  Velvetleaf plant response rating (0 to 10 scale): 0
velvetleaf; [6]
  Velvetleaf plant response rating: 0
velvetleaf; [7]
  Plant response rating, Velvetleaf: 4
Giant foxtail; [1]
  Giant foxtail plant response rating: 2
Giant foxtail; [2]
  Giant foxtail plant response rating: 4
Giant foxtail; [3]
  Plant response rating, Giant foxtail: 9
Giant foxtail; [4]
  Plant response rating, Giant foxtail: 9
Giant foxtail; [5]
  Giant foxtail plant response rating: 10
Giant foxtail; Preemergence, Rate 250 g/ha
  Giant foxtail plant response rating (0 to 10 scale): 10
Giant foxtail; [6]
  Giant foxtail plant response rating: 10
Giant foxtail; [7]
  Plant response rating, Giant foxtail: 4
wheat; [1]
  Wheat plant response rating: 0
wheat; [2]
  Wheat plant response rating: 0
wheat; [3]
  Plant response rating, Wheat: 0
wheat; [4]
  Plant response rating, Wheat: 0
wheat; [5]
  Wheat plant response rating: 0
wheat; Preemergence, Rate 250 g/ha
  Wheat plant response rating (0 to 10 scale): 0
wheat; [6]
  Wheat plant response rating: 0
wheat; [7]
  Plant response rating, Wheat: 0
